The target in one assay is T1, PI3Kγ (Homo sapiens, UniProt P48736).
T1 construct: purchased Merck Millipore
Description: In vitro PI3K inhibition assay (ADP-Glo kinase assay), PI3Kγ. The assay is classed as biochemical. Conditions: for IC50: mean of two independent experiments; for Fold Selectivity γ/δ: ratio IC50 PI3Kγ / IC50 PI3Kδ. How it is done:
(§1) All compounds were tested in a biochemical assay that measured the inhibition of phosphatidylinositol […] production by PI3K isoforms using the ADP-Glo kinase assay (Promega). In addition, the effects of synthesized compounds on B cell proliferation were measured.
(§2) The potency and selectivity of compounds were assessed by measuring the ability of PI3K kinases to convert ATP to ADP during an enzymatic reaction in the presence of decreasing doses of tested compounds. The experiments were carried out using the ADP-Glo kinase assay kit (Promega), according to the manufacturer’s protocol. PI3Kα, PI3Kβ, PI3Kδ, and PI3Kγ have been purchased from Merck Millipore and phosphoinositol-4,5-bisphosphate (PIP2) lipid vesicles with phosphoserine from ThermoFisher Scientific were used as a substrate in the enzymatic reaction.
(§3) After the reaction, the ADP-Glo reagent and the kinase detection reagent were added sequentially with 40 min of incubation (25 °C, 600 rpm) after adding each reagent. Finally, the luminescence intensity was measured and the IC50 was calculated using GraphPad Prism 7 software. The presented results are the mean value of IC50 from at least two independent experiments.

In assay [1] the target is T2, PI3Kα (Homo sapiens, UniProt P42336).
T2 construct: purchased Merck Millipore (methods text)
T2 sequence (P42336 whole entry): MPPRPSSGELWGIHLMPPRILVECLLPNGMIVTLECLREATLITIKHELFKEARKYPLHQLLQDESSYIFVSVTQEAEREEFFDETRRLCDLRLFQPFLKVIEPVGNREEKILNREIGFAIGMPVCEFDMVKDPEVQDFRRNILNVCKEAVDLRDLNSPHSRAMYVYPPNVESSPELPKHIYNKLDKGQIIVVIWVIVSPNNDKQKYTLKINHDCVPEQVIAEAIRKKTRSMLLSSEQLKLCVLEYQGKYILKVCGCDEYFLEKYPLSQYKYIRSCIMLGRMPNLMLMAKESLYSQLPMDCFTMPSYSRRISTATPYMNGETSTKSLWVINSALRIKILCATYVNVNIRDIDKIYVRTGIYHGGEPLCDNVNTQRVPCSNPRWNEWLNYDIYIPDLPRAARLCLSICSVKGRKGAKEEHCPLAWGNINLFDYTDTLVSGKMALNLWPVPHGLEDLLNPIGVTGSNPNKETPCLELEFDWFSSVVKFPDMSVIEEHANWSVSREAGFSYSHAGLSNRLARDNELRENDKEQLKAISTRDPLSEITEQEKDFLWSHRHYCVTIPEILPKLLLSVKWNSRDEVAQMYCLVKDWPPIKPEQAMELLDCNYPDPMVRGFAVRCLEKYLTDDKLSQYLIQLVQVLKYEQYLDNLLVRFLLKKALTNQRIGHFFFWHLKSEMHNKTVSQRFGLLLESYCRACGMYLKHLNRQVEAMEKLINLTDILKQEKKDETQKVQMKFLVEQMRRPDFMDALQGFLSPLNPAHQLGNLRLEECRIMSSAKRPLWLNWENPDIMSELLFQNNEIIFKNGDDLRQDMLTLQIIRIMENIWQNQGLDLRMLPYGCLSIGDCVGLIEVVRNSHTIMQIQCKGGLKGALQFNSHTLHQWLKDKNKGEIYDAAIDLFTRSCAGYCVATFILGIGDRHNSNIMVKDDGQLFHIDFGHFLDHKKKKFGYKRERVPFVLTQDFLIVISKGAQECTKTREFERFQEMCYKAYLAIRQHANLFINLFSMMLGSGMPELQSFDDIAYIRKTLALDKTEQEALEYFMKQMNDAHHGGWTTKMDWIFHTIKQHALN
T2 sequence (P27986 whole entry partner): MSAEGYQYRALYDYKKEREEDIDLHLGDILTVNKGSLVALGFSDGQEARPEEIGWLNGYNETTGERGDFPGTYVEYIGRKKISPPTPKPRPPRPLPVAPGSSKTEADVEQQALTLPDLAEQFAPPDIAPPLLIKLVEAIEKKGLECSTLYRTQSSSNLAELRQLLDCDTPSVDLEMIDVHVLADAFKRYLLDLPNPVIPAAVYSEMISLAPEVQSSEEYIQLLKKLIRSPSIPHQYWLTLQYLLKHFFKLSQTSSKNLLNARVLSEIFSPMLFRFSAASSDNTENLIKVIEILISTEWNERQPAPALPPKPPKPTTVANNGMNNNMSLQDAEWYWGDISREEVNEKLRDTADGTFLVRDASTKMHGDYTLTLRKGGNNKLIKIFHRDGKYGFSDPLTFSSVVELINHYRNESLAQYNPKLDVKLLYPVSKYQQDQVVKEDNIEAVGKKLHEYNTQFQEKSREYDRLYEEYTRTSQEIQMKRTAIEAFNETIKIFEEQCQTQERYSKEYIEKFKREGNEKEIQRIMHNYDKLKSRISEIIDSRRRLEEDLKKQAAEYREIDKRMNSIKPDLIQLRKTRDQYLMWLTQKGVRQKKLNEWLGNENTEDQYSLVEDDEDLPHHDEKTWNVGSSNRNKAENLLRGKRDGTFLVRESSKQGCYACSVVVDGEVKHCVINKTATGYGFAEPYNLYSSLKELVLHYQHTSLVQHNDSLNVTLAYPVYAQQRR
Description: In vitro PI3K inhibition assay (ADP-Glo kinase assay), PI3Kα. The assay is classed as biochemical. Conditions: for Fold Selectivity α/δ: ratio IC50 PI3Kα / IC50 PI3Kδ. How it is done:
as §1, §2, §3

In assay [2] the target is T3, PI3Kδ (Homo sapiens, UniProt O00329).
T3 construct: purchased Merck Millipore
T3 sequence (O00329 whole entry, looked up): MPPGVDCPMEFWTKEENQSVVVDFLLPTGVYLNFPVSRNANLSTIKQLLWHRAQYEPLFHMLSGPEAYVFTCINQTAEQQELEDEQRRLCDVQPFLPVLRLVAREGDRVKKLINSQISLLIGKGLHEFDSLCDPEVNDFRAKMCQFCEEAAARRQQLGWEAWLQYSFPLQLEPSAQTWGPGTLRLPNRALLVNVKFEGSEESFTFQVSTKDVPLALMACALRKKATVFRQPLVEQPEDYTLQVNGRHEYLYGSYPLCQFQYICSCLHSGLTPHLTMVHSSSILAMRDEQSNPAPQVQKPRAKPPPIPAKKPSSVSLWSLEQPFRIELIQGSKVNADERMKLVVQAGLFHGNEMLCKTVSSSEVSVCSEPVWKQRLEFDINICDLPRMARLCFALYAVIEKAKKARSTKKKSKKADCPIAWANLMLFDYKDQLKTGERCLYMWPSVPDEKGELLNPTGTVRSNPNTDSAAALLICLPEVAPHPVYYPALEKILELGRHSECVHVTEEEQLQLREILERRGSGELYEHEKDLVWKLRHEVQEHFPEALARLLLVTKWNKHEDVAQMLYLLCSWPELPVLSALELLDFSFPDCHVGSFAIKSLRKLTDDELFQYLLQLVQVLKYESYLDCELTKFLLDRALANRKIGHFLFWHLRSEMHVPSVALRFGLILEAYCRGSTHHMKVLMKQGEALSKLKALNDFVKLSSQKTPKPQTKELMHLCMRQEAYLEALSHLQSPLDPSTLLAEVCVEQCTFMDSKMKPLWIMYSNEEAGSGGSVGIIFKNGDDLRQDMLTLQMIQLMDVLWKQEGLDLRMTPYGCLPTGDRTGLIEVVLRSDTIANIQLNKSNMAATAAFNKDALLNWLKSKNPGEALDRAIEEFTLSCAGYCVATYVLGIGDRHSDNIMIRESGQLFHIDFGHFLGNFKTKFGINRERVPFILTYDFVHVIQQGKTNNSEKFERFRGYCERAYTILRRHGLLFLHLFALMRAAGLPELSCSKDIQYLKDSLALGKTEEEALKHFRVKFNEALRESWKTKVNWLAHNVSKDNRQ
Description: In vitro PI3K inhibition assay (ADP-Glo kinase assay), PI3Kδ. Format: biochemical. Conditions: mean of two independent experiments. Here is the method:
as §1, §2, §3

The next assay deals with T4, PI3Kβ (Homo sapiens, UniProt P42338).
T4 construct: purchased Merck Millipore
T4 sequence (P42338 whole entry, looked up): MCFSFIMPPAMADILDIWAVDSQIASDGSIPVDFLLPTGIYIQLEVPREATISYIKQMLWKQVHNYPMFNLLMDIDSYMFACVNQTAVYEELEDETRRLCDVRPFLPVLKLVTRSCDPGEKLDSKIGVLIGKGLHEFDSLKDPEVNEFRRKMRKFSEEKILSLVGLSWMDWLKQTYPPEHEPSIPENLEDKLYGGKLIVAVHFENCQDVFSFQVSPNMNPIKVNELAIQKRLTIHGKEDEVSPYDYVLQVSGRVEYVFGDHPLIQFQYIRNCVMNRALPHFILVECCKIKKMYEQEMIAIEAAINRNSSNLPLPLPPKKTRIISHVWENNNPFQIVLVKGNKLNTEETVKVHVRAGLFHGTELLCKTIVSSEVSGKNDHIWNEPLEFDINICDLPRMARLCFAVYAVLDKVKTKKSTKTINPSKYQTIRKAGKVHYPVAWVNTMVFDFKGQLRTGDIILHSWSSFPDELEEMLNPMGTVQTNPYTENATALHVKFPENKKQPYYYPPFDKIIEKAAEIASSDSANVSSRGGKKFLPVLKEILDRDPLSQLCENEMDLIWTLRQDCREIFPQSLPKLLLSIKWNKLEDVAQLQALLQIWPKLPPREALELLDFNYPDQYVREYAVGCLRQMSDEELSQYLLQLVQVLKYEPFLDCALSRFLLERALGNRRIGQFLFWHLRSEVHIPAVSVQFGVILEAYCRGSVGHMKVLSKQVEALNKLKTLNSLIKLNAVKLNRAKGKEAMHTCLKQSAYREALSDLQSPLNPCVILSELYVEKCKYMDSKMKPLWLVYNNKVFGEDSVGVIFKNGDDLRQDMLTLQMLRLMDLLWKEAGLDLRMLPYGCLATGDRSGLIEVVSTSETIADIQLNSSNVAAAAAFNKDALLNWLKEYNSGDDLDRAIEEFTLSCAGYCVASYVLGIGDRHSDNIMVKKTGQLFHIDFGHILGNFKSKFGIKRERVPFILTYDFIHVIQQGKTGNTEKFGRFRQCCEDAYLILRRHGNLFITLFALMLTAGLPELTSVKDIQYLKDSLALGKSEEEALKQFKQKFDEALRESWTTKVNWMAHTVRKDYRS
The assay can be described thus: In vitro PI3K inhibition assay (ADP-Glo kinase assay), PI3Kβ. The assay is classed as biochemical. Conditions: for IC50: mean of two independent experiments; for Fold Selectivity β/δ: ratio IC50 PI3Kβ / IC50 PI3Kδ. How it is done:
as §1, §2, §3

Assay [3] has as its target T3, PI3Kδ. Conditions: cited from earlier work.
Another assay relates to CD19+ B cells. Description: B cell (CD19+) proliferation assay, CFSE flow cytometry. The conditions noted are these: Homo sapiens, 96 h; B cell proliferation, activated by αIgM and ODN2006, 4 days; read-out: IC50 CD19. Format: cell-based. Here is the method:
CD19 cells were isolated from PBMCs using magnetic beads (Stem Cell (Vancouver, Canada)) and then labeled with 2 µM of CFSE (Invitrogen (Waltham, MA, USA)).
After 4 days, cells were stained with LIVE/DEAD™ kit (Invitrogen (Waltham, MA, USA)). Samples were acquired using Attune NxT flow cytometer (Invitrogen) and analyzed using FlowJo software. Each biological assay was performed with cells isolated from a different donor. The presented results constitute the average percentage values of proliferating cells from 3 independent experiments.
Human PBMCs were isolated from buffy coats of healthy donors obtained from the Regional Blood Donation and Blood Medicine Center in Warsaw. Lymphocytes B: CD19+ cells were isolated from PBMCs on magnetic beads (Stem Cell), labeled with 2 µM CFSE (Invitrogen), and seeded on a 96-well plate (1 × 10^5 cells/well). B cells were activated by 2 µg/mL of αIgM (Jackson ImmunoResearch) and 1 µg/mL of ODN2006 (InvivoGen). Cells were incubated with increasing concentrations of compounds (range 0.03–10,000 nM). After 4 days, B cells were stained with LIVE/DEAD™ kit (Invitrogen), acquired using the Attune NxT flow cytometer (Invitrogen), and analyzed using FlowJo10 software. For data normalization, the percentage value of proliferating cells in each sample was divided by the average percentage value of positive control in a single experiment. IC50 values were calculated using a three-parameter dose–response inhibition function in GraphPad Prism.

The target in assay [4] is T2, PI3Kα. Conditions: PI3Kδ versus PI3Kα, in words; cited from earlier work.
Assay [5] concerns the target T3, PI3Kδ. Conditions: cited from earlier work. This is another data set of the same source.

Like-named read-outs stand apart in the source and are kept apart here.

T1 sequence (P48736 whole entry): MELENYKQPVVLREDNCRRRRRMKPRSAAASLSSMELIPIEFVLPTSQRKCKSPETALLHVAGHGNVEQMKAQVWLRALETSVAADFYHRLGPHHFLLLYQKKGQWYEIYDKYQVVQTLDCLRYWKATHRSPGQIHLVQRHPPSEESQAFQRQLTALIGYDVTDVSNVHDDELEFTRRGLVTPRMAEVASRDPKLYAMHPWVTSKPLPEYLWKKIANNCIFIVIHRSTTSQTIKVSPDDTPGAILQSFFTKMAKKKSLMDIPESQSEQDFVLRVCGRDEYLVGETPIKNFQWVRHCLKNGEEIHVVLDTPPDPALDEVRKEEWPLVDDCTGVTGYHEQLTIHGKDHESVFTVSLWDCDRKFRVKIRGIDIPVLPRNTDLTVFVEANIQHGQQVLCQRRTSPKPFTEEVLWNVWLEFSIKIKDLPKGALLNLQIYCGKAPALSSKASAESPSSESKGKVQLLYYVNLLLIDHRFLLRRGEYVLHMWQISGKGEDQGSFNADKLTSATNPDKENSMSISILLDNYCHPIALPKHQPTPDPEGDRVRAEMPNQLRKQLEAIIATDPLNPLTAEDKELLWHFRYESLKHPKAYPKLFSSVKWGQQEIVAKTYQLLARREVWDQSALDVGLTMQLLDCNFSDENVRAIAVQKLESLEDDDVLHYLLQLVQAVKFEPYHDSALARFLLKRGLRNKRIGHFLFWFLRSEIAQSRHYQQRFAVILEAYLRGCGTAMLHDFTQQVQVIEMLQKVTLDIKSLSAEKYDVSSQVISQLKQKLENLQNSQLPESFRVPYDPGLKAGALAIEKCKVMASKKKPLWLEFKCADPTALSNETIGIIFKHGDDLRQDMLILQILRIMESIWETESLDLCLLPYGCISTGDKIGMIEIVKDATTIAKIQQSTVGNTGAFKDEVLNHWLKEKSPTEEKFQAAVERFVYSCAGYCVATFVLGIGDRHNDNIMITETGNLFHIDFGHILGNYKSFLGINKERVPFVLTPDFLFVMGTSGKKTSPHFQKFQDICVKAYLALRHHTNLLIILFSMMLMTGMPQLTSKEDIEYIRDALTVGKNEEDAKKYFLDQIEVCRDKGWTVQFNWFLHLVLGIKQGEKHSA

For `CCc1nc2ccccc2n1-c1cc(N2CCOCC2)n2nc(CN3CCN(C(C)(C)C)CC3)cc2n1` [Compound 7, 1-{2-[(4-tert-butylpiperazin-1-yl)methyl]-7-(morpholin-4-yl)pyrazolo[1,5-a]pyrimidin-5-yl}-2-ethyl-1H-benzimidazole], on PI3Kγ, inhibition was half-maximal at 258 µM (IC50) and the “Fold Selectivity γ/δ” value stood at 671. At PI3Kα [1], inhibition was half-maximal at 28.7 µM (IC50) and the “Fold Selectivity α/δ” value is recorded as 74. For the same compound, at PI3Kδ [2], it took 0.385 µM to reach half-maximal inhibition (IC50). Also, on PI3Kβ, it took 266 µM to reach half-maximal inhibition (IC50) and the “Fold Selectivity β/δ” value is 690.
Take `CS(=O)(=O)N1CCN(Cc2cc3nc(-c4cccc5[nH]ncc45)nc(N4CCOCC4)c3s2)CC1` [GDC-0941, 2-(1 H -Indazol-4-Yl)-6-(4-Methanesulfonyl-Piperazin-1-Ylmethyl)-4-Morpholin-4-Yl-Thieno [3,2-d]Pyrimidine]: the PI3Kγ/δ selectivity result at PI3Kδ [3] is reported as “poor”.
Regarding `CC(C)(C(N)=O)N1CCN(Cc2cc3nc(-n4c(C(F)F)nc5ccccc54)cc(N4CCOCC4)n3n2)CC1` [Compound 17, 2-[4-({5-[2-(difluoromethyl)-1H-1,3-benzimidazol-1-yl]-7-(morpholin-4-yl)pyrazolo[1,5-a]pyrimidin-2-yl}methyl)piperazin-1-yl]-2-methylpropanamide], the IC50 was 2.2 µM at PI3Kγ; 0.624 µM at PI3Kα [1]; 0.052 µM in the assay on CD19+ B cells; 0.031 µM against PI3Kδ [2]; 44.8 µM against PI3Kβ. Further, the “Fold Selectivity γ/δ” value on PI3Kγ amounted to 71. For the same compound, the “Fold Selectivity α/δ” value at PI3Kα [1] is on record as 20. For the same compound, on PI3Kβ, the “Fold Selectivity β/δ” value is reported as 1444.
For `CC(C)(O)C1CCN(Cc2cc3nc(-n4c(C(F)F)nc5ccccc54)cc(N4CCOCC4)n3n2)CC1` [Compound 11, 2-[1-({5-[2-(difluoromethyl)-1H-benzimidazol-1-yl]-7-(morpholin-4-yl)pyrazolo[1,5-a]pyrimidin-2-yl}methyl)piperidin-4-yl]propan-2-ol], the half-inhibitory concentration (IC50) is 6.35 µM against PI3Kγ, 1.73 µM against PI3Kα [1] and 0.052 µM against PI3Kδ [2]. Also, at PI3Kγ, the “Fold Selectivity γ/δ” value came to 122. Also, the “Fold Selectivity α/δ” value on PI3Kα [1] is 33.
On to `Cc1nc2ccccc2n1-c1cc(N2CCOCC2)n2nc(CN3CCC(C(C)(C)O)CC3)cc2n1` [Compound 12, 2-(1-{[5-(2-methyl-1H-1,3-benzimidazol-1-yl)-7-(morpholin-4-yl)pyrazolo[1,5-a]pyrimidin-2-yl]methyl}piperidin-4-yl)propan-2-ol], for which, on PI3Kγ, the half-maximal inhibitory concentration (IC50) came out at 119 µM and the “Fold Selectivity γ/δ” value is recorded as 136. At PI3Kα [1], the half-inhibitory concentration (IC50) worked out at 30.5 µM and the “Fold Selectivity α/δ” value came out at 35. Also, the 50% inhibitory concentration (IC50) at PI3Kδ [2] was found to be 0.878 µM. Moreover, on PI3Kβ, the midpoint of inhibition, the IC50, lay at 195 µM and the “Fold Selectivity β/δ” value worked out at 222.
For the compound `Cc1nc2ccccc2n1-c1cc(N2CCOCC2)n2nc(CN3CCN(C(C)(C)C)CC3)cc2n1` [Compound 5, 1-{2-[(4-tert-butylpiperazin-1-yl)methyl]-7-(morpholin-4-yl)pyrazolo[1,5-a]pyrimidin-5-yl}-2-methyl-1H-benzimidazole], on PI3Kγ, the midpoint of inhibition, the IC50, lay at 175 µM and the “Fold Selectivity γ/δ” value is 742. Further, at PI3Kα [1], the IC50 stood at 10.6 µM and the “Fold Selectivity α/δ” value came to 45. This compound also had an IC50 against PI3Kδ [2] of 0.236 µM. Further, at PI3Kβ, the midpoint of inhibition, the IC50, lay at 298 µM and the “Fold Selectivity β/δ” value was 1264.
On to `O=C(C1CC1)N1CCN(Cc2cc3nc(-n4c(C(F)F)nc5ccccc54)cc(N4CCOCC4)n3n2)CC1` [Compound 18], for which the IC50 stood at 0.156 µM against PI3Kγ; 0.073 µM at PI3Kα [1]; 0.058 µM in the assay on CD19+ B cells; 0.024 µM against PI3Kδ [2]; 47.4 µM at PI3Kβ. Further, the “Fold Selectivity γ/δ” value at PI3Kγ turned out to be 6.5. Also, the “Fold Selectivity α/δ” value at PI3Kα [1] came to 3.0. Moreover, the “Fold Selectivity β/δ” value on PI3Kβ turned out to be 1973.
Consider `CS(=O)(=O)N1CCN(Cc2cc3nc(-n4c(C(F)F)nc5ccccc54)cc(N4CCOCC4)n3n2)CC1` [Compound 16, 2-(difluoromethyl)-1-{2-[(4-methanesulfonylpiperazin-1-yl)methyl]-7-(morpholin-4-yl)pyrazolo[1,5-a]pyrimidin-5-yl}-1H-1,3-benzimidazole], for which the IC50 was found to be 0.111 µM against PI3Kγ; 0.044 µM against PI3Kα [1]; 0.114 µM in the assay on CD19+ B cells; 0.043 µM against PI3Kδ [2]; 13.6 µM at PI3Kβ. The “Fold Selectivity γ/δ” value at PI3Kγ was 2.6. In addition, the “Fold Selectivity α/δ” value at PI3Kα [1] amounted to 1.0. For the same compound, the “Fold Selectivity β/δ” value on PI3Kβ turned out to be 316.
As to `CC(C)(C)N1CCN(Cc2cc3nc(-n4c(C5CC5)nc5ccccc54)cc(N4CCOCC4)n3n2)CC1` [Compound 8, 1-{2-[(4-tert-butylpiperazin-1-yl)methyl]-7-(morpholin-4-yl)pyrazolo[1,5-a]pyrimidin-5-yl}-2-cyclopropyl-1H-benzimidazole], the half-maximal inhibitory concentration (IC50) against PI3Kγ was 271 µM; at PI3Kα [1], 82.5 µM; against PI3Kδ [2] it was 1.07 µM; at PI3Kβ, 259 µM. Also, on PI3Kγ, the “Fold Selectivity γ/δ” value was 253. On PI3Kα [1], the “Fold Selectivity α/δ” value is listed as 77. In addition, on PI3Kβ, the “Fold Selectivity β/δ” value came to 242.
On to `Cc1cc2nc(-n3c(C(F)F)nc4ccccc43)cc(N3CCOCC3)n2n1` [Compound 1], for which, on PI3Kα [4], the “selectivity toward the alpha isoform” value is on record as “poor”. Also, the 50% inhibitory concentration (IC50) on PI3Kδ [5] is 0.475 µM.
Turning to `OC1CCN(Cc2cc3nc(-n4c(C(F)F)nc5ccccc54)cc(N4CCOCC4)n3n2)CC1` [Compound 34, 1-({5-[2-(difluoromethyl)-1H-1,3-benzimidazol-1-yl]-7-(morpholin-4-yl)pyrazolo[1,5-a]pyrimidin-2-yl}methyl)piperidin-4-ol], on PI3Kγ, 4.32 µM corresponded to half-maximal inhibition (IC50) and the “Fold Selectivity γ/δ” value turned out to be 7.7. Also, the IC50 on PI3Kδ [2] worked out at 0.561 µM.

The values are drawn from paper PMC9415947 (Pharmaceuticals, 2022).
